Measured values reported in US6770627B1, “Piperizine-4-phenyl derivatives as inhibitors of the interaction between mdm2 and p 53” (AstraZeneca AB, priority 1998, dated 2004).

Molecular target: T1, p53/MDM2 interaction [MDM2 (1-118) 6 his and GST-p53(1-50)] (Homo sapiens, UniProt Q00987)
T1 construct: The human MDM2 N-terminal fragment encompassing amino acids 1-118; made in house; host or cells: E. coli BL21/DE3 (MDM2-6His); E. coli DH5alpha (GST-p53)
Test: Measurement of the inhibition of p53/MDM2 interaction (modified ELISA)
Type: binding
Conditions: 75 nM GST-p53 coated, 75 nM MDM2-6His, NTA-AP detection, optical density at 405 nm, compounds tested between 0 and 100 μM
Description: The inhibition of the p53/MDM2 interaction by compounds was measured using a modified ELISA assay using a histidine tagged MDM2 [MDM2 (1-118) 6 his], a p53 GST fusion protein (GST-p53) and a nickel chelate-alkaline phosphatase (NTA-AP).
The human MDM2 N-terminal fragment encompassing amino acids 1-118 and immediately followed by a C-terminal 6-histidine tag sequence and then a stop codon was generated by PCR from a human placental cDNA library. The PCR product was initially cloned into pCR2.1 vector (Invitrogen) following the manufacturer's protocol. DNA sequencing confirmed a MDM fragment sequence identical to that of published MDM2 (EMBL accession no. Z12020). The MDM2-6His fragment was then subcloned into pTB375 E. coli expression vector to produce the expression vector pTB375-MDM2-6His (1-118) clone no. 11. The pTB375 vector is a modified T7 (Studier) Expression vector. Expression grows were performed in E. coli strain BL21/DE3 (obtained from Novagen Inc.) and expression of the recombinant protein was induced by addition of IPTG (isopropyl-β-D-1-thiogalactopyranoside). MDM2 (1-118) 6 his was purified from E. coli lysates using Ni-NTA beads (Qiagen). […]
100 μl of 75 nM GST-p53 was added per well to a 96 well plate (Nunc Maxisorp) and the plate left at 4° C. overnight. […] The optical density of each well was measured at 405 nm. […]

T1 sequence (Q00987 1-118): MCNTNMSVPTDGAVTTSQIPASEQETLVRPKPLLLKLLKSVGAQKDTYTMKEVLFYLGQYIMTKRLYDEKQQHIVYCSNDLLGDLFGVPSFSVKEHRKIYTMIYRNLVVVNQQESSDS

Cc1occc1C(=O)N[C@@H](Cc1c[nH]c2ccccc12)C(=O)N1CCN(c2ccc([N+](=O)[O-])cc2)CC1 [Example 9, 2-Methyl-3-furoyl-Trp-piperazine-4-nitrophenyl]
IC50: ~4 µM
